The text below walks through data of article PMC9146698, “Mammalian Brain Ca^2+ Channel Activity Transplanted into Xenopus laevis Oocytes” (Membranes, 2022).

The assay deals with T1, GABA receptor.
T1 construct: gene Gabra1
The assay can be described thus: two-electrode voltage clamp, membrane-transplanted oocytes. In kind it is cell-based, Mus musculus. To be noted: block of GABA-induced Cl- current; n = 5; data not shown.

As for `CN1CCc2cc3c(cc2[C@H]1[C@@H]1OC(=O)c2c1ccc1c2OCO1)OCO3` [biccuculine], the “% block at 100 μM” value is 87 ± 2%.
